In patent publication US20210068395A1, “METHODS OF APPLYING ONE OR MORE CERTAIN HETEROARYL-1,2,4-TRIAZOLE AND HETEROARYL-TETRAZOLE COMPOUNDS TO CONTROL DAMAGE ON PLANTS, PROPAGATION MATERIAL THEREOF, AND PLANT DERIVED PRODUCTS” (SYNGENTA CROP PROTECTION AG, priority 2018, published 2021):

What was measured:
Type in all cases: in vivo
[1] = tested on: Diabrotica balteata (corn root worm); test: Diabrotica balteata (corn root worm), sprayed maize sprouts; conditions: 96 h, application rate 200 ppm, L2 larvae, 4 days after infestation, read-out: control in at least one of the two categories (mortality or growth inhibition)
Protocol: Maize sprouts placed onto an agar layer in 24-well microtiter plates were treated with aqueous test solutions prepared from 10,000 ppm DMSO stock solutions by spraying. After drying, the plates were infested with L2 larvae (6 to 8 per well). The samples were assessed for mortality and growth inhibition in comparison to untreated samples 4 days after infestation.

[2] = tested on: Euschistus heros (Neotropical Brown Stink Bug); test: Euschistus heros feeding/contact activity; conditions: 120 h, application rate 200 ppm, N2 nymphs on soybean leaves, 5 days after infestation, read-out: control in at least one of the two categories (mortality or growth inhibition)
Protocol: Soybean leaves on agar in 24-well microtiter plates were sprayed with aqueous test solutions prepared from 10,000 ppm DMSO stock solutions. After drying the leaves were infested with N2 nymphs. The samples were assessed for mortality and growth inhibition 5 days after infestation.

[3] = tested on: Myzus persicae (Green Peach Aphid); test: Myzus persicae feeding/contact activity; conditions: foliar, 144 h, application rate 200 ppm, sunflower leaf discs sprayed, 6 days after infestation
Protocol: (§1) Sunflower leaf discs were placed onto agar in a 24-well microtiter plate and sprayed with aqueous test solutions prepared from 10,000 ppm DMSO stock solutions. After drying, the leaf discs were infested with an aphid population of mixed ages. The samples were assessed for mortality 6 days after infestation.

[4] = tested on: Myzus persicae (Green Peach Aphid); test: Myzus persicae systemic activity; conditions: 144 h, test rate 24 ppm, roots of pea seedlings in test solution, 6 days
Protocol: Roots of pea seedlings infested with an aphid population of mixed ages were placed directly into aqueous test solutions prepared from 10,000 DMSO stock solutions. The samples were assessed for mortality 6 days after placing seedlings into test solutions.

[5] = tested on: Myzus persicae (Green Peach Aphid); test: Myzus persicae feeding activity (sucrose solution, Parafilm); conditions: 120 h, test rate 12.5 ppm, in sucrose solution, 5 days after infestation
Protocol: Test compounds prepared from 10,000 ppm DMSO stock solutions were applied by pipette into 24-well microtiter plates and mixed with sucrose solution. The plates were closed with a stretched Parafilm. A plastic stencil with 24 holes was placed onto the plate and infested pea seedlings were placed directly on the Parafilm. The infested plate was closed with a gel blotting paper and another plastic stencil and then turned upside down. The samples were assessed for mortality 5 days after infestation.

[6] = tested on: Plutella xylostella (Diamond Back Moth); test: Plutella xylostella feeding/contact activity, 96-well artificial diet; conditions: 216 h, application rate 500 ppm, 9 days after infestation
Protocol: 1, 2, 3, 4, 17, 19, 23, 26, 39, 41, 42, 54, 55, 56 Plutella xylostella (Diamond Back Moth):Feeding/Contact Activity 96-well microtiter plates containing artificial diet were treated with aqueous test solutions, prepared from 10,000 ppm DMSO stock solutions, by a liquid handling robot. After drying, eggs (˜30 per well) were infested onto a netted lid which was suspended above the diet. The eggs hatch and L1 larvae move down to the diet. The samples were assessed for mortality 9 days after infestation.

[7] = tested on: Plutella xylostella (Diamond Back Moth); test: Plutella xylostella feeding/contact activity, 24-well artificial diet; conditions: 192 h, application rate 200 ppm, 24-well artificial diet, 8 days after infestation, read-out: control in at least one of the two categories (mortality or growth inhibition)
Protocol: 24-well microtiter plates with artificial diet were treated with aqueous test solutions prepared from 10,000 ppm DMSO stock solutions by pipetting. After drying, Plutella eggs were pipetted through a plastic stencil onto a gel blotting paper and the plate was closed with it. The samples were assessed for mortality and growth inhibition in comparison to untreated samples 8 days after infestation.

[8] = tested on: Spodoptera littoralis (Egyptian Cotton Leaf Worm); test: Spodoptera littoralis feeding/contact activity; conditions: foliar, 72 h, application rate 200 ppm, L1 larvae on cotton leaf discs, 3 days after infestation, read-out: control in at least one of the three categories (mortality or growth inhibition or anti-feeding)
Protocol: Cotton leaf discs were placed onto agar in 24-well microtiter plates and sprayed with aqueous test solutions prepared from 10,000 ppm DMSO stock solutions. After drying the leaf discs were infested with five L1 larvae. The samples were assessed for mortality, anti-feeding and growth inhibition 3 days after infestation.

[9] = tested on: Spodoptera littoralis (Egyptian Cotton Leaf Worm); test: Spodoptera littoralis systemic activity (lettuce); conditions: 144 h, test rate 12.5 ppm, root uptake in lettuce, 6 days after infestation, read-out: control in at least one of the three categories (mortality or growth inhibition or anti-feeding)
Excerpt: Test compounds were applied by pipette prepared from 10,000 ppm DMSO stock solutions into 24-well plates and mixed with agar. Lettuce seeds were placed onto the agar and the multi well plate was closed by another plate which contained also agar. After 7 days the compound was absorbed by the roots and the lettuce grew into the lid plate. The lettuce leaves were then cut off into the lid plate. Spodoptera eggs were pipetted through a plastic stencil onto a humid gel blotting paper and the lid plate was closed with it. The samples were assessed for mortality, anti-feeding and growth inhibition 6 days after infestation.

[10] = tested on: Thrips tabaci (Onion thrips); test: Thrips tabaci feeding/contact activity; conditions: foliar, 144 h, application rate 200 ppm, sunflower leaf discs, 6 days after infestation, read-out: control in at least one of the two categories (mortality or anti-feeding)
Protocol: as §1, with “on” for “onto”, “in” for “in a”, “plates” for “plate”, “drying” for “drying,”, “a thrips” for “an aphid”, “mortality, and anti-feeding” for “mortality”

[11] = tested on: Carpocapsa (Cydia) Pomonella (Codling Moth); test: Carpocapsa (Cydia) pomonella larvicide, feeding/contact; conditions: 336 h, test rate 50 ppm, L1 larvae on diet cubes, 14 days after infestation, read-out: control in at least one of the two categories (mortality or growth inhibition)
Protocol: Diet cubes coated with paraffin were sprayed with diluted test solutions in an application chamber. After drying off the treated cubes (10 replicates) were infested with 1 L1 larvae. Samples were incubated at 26-27° C. and checked 14 days after infestation for mortality and growth inhibition.

[12] = tested on: Chrysodeixis includens (Soybean Looper); test: Chrysodeixis includens larvicide, feeding/contact; conditions: 120 h, test rate 50 ppm, L2 larvae on soybean leaves, 5 days after infestation, read-out: control in at least one of the two categories (mortality or growth inhibition)
Protocol: Soybean plants were treated in a spray chamber, cut off and placed into petri dishes containing wet filter paper. 1 d after application leaves were infested with 5 L2 larvae and covered with a fabric filter and plastic lids. 5 days after infestation the samples were assessed for mortality and growth inhibition.

[13] = tested on: Nilaparvata lugens (Brown Plant Hopper); test: Nilaparvata lugens larvicide, feeding/contact; conditions: 168 h, test rate 200 ppm, N3 nymphs on sprayed rice plants, 7 days after treatment, read-out: control in at least one of the two categories (mortality or growth inhibition)
Protocol: Rice plants were treated with the diluted test solutions in a spray chamber. After drying plants were infested with ˜20 N3 nymphs. 7 days after the treatment samples were assessed for mortality and growth inhibition.

[14] = tested on: Nilaparvata lugens (Brown Plant Hopper); test: Nilaparvata lugens larvicide, systemic into water; conditions: 168 h, test rate 12.5 ppm, into nutritive solution of rice plants, N3 nymphs, 7 days after infestation, read-out: control in at least one of the two categories (mortality or growth inhibition)
Protocol: Rice plants cultivated in a nutritive solution were treated with the diluted test solutions into nourishing cultivation system. 1 day after application plants were infested with ˜20 N3 nymphs. 7 days after infestation samples were assessed for mortality and growth inhibition.

[15] = tested on: Chilo suppressalis (Striped Stem Borer); test: Chilo suppressalis larvicide, feeding/contact; conditions: 120 h, test rate 200 ppm, L2 larvae on sprayed rice plants, 5 days after application
Protocol: Rice plants were treated in a spray chamber, cut off and placed into petri dishes containing wet filter paper. 10 L2 larvae were infested and covered up with a cotton filter and a lid. 5 days after application samples were assessed for mortality.

[16] = tested on: Frankliniella occidentalis (Western Flower Thrips); test: Frankliniella occidentalis feeding/contact activity; conditions: foliar, 168 h, application rate 200 ppm, mixed ages on sunflower leaf discs, 7 days after infestation
Protocol: Sunflower leaf discs were placed on agar in 24-well microtiter plates and sprayed with aqueous test solutions prepared from 10,000 DMSO stock solutions. After drying the leaf discs were infested with a Frankliniella population of mixed ages. The samples were assessed for mortality 7 days after infestation.

[17] = tested on: Aphis craccivora (Black Bean Aphid); test: Aphis craccivora mixed population, contact/feeding; conditions: 120 h, test rate 200 ppm, pea seedlings sprayed, 5 days after treatment
Protocol: Pea seedlings infested with mixed aged aphid population were treated with diluted test solutions in a spray chamber. 5 days after treatment, samples were assessed for mortality.

[18] = tested on: Aphis craccivora (Black Bean Aphid); test: Aphis craccivora mixed population, systemic/feeding; conditions: 120 h, test rate 12.5 ppm, pea seedlings in test solutions, 5 days
Protocol: Pea seedlings infested with mixed aged aphid population, were put into glass vials with test solutions. 5 days later, samples were assessed for mortality.

[19] = tested on: Aedes aegypti (Yellow Fever Mosquito); test: whole plant or invertebrate; conditions: test rate 200 ppm, adult females, mortality assessed at 24 and 48 hours
Protocol: (§2) Test solutions, at an application rate of 200 ppm in ethanol, were applied to 12 well tissue culture plates. Once the deposits were dry, five, two to five day old adult female Aedes aegypti were added to each well, and sustained with a 10% sucrose solution in a cotton wool plug. Assessment of knockdown was made one hour after introduction, and mortality was assessed at 24 and 48 hours after introduction.

[20] = tested on: Anopheles stephensi (Indian Malaria Mosquito); test: Anopheles stephensi adult contact on treated plates; conditions: test rate 200 ppm, adult females, mortality assessed at 24 and 48 hours
Protocol: as §2, with “Anopheles stephensi” for “Aedes aegypti”

CCN(C(=O)c1cc(C(F)(F)F)cc(C(F)(F)F)c1)C(C)c1ncnn1-c1ncccn1 (stereo not shown) [Compound 39]
percent control (mortality or growth inhibition) at 200 ppm [1]: ≥ 80%
percent control (mortality or growth inhibition) at 200 ppm [2]: ≥ 80%
mortality at 200 ppm [3]: ≥ 80%
mortality at 24 ppm [4]: ≥ 80%
mortality at 12.5 ppm [5]: ≥ 80%
mortality at 500 ppm [6]: ≥ 80%
percent control (mortality or growth inhibition) at 200 ppm [7]: ≥ 80%
percent control (mortality, anti-feedant effect or growth inhibition) at 200 ppm [8]: ≥ 80%
percent control (mortality, anti-feedant effect or growth inhibition) at 12.5 ppm [9]: ≥ 80%
percent control (mortality, anti-feedant effect or growth inhibition) at 200 ppm [10]: ≥ 80%
percent control (mortality or growth inhibition) at 50 ppm [11]: ≥ 80%
percent control (mortality or growth inhibition) at 50 ppm [12]: ≥ 80%
percent control (mortality or growth inhibition) at 200 ppm [13]: ≥ 80%
percent control (mortality or growth inhibition) at 12.5 ppm [14]: ≥ 80%
mortality at 200 ppm [15]: ≥ 80%

CC(c1ncnn1-c1ccccn1)N(CC1CC1)C(=O)c1cc(C(F)(F)F)cc(C(F)(F)F)c1 (stereo not shown) [Compound 74]
percent control (mortality or growth inhibition) at 200 ppm [1]: ≥ 80%
mortality at 500 ppm [6]: ≥ 80%
percent control (mortality or growth inhibition) at 200 ppm [7]: ≥ 80%
percent control (mortality, anti-feedant effect or growth inhibition) at 200 ppm [8]: ≥ 80%
percent control (mortality, anti-feedant effect or growth inhibition) at 12.5 ppm [9]: ≥ 80%
percent control (mortality or growth inhibition) at 50 ppm [11]: ≥ 80%
percent control (mortality or growth inhibition) at 50 ppm [12]: ≥ 80%
percent control (mortality or growth inhibition) at 12.5 ppm [14]: ≥ 80%
mortality at 200 ppm [15]: ≥ 80%

C#CCN(C(=O)c1cc(C(F)(F)F)cc(C(F)(F)F)c1)C(C)c1ncnn1-c1ncccn1 (stereo not shown) [Compound 2]
percent control (mortality or growth inhibition) at 200 ppm [1]: ≥ 80%
percent control (mortality or growth inhibition) at 200 ppm [2]: ≥ 80%
mortality at 200 ppm [16]: ≥ 80%
mortality at 200 ppm [3]: ≥ 80%
mortality at 24 ppm [4]: ≥ 80%
mortality at 12.5 ppm [5]: ≥ 80%
mortality at 500 ppm [6]: ≥ 80%
percent control (mortality, anti-feedant effect or growth inhibition) at 200 ppm [8]: ≥ 80%
percent control (mortality, anti-feedant effect or growth inhibition) at 200 ppm [10]: ≥ 80%
mortality at 200 ppm [17]: ≥ 80%
mortality at 12.5 ppm [18]: ≥ 80%
percent control (mortality or growth inhibition) at 50 ppm [11]: ≥ 80%
percent control (mortality or growth inhibition) at 50 ppm [12]: ≥ 80%
percent control (mortality or growth inhibition) at 200 ppm [13]: ≥ 80%
percent control (mortality or growth inhibition) at 12.5 ppm [14]: ≥ 80%
mortality at 200 ppm [15]: ≥ 80%
mortality at 200 ppm [19]: ≥ 60%
mortality at 200 ppm [20]: ≥ 60%

CC(c1ncnn1-c1ncccn1)N(CC1CC1)C(=O)c1cc(Cl)cc(OC(F)(F)F)c1 (stereo not shown) [Compound 26]
percent control (mortality or growth inhibition) at 200 ppm [1]: ≥ 80%
mortality at 200 ppm [3]: ≥ 80%
mortality at 12.5 ppm [5]: ≥ 80%
mortality at 500 ppm [6]: ≥ 80%
percent control (mortality or growth inhibition) at 200 ppm [7]: ≥ 80%
percent control (mortality, anti-feedant effect or growth inhibition) at 200 ppm [8]: ≥ 80%
percent control (mortality, anti-feedant effect or growth inhibition) at 12.5 ppm [9]: ≥ 80%
percent control (mortality or growth inhibition) at 50 ppm [11]: ≥ 80%
percent control (mortality or growth inhibition) at 50 ppm [12]: ≥ 80%
percent control (mortality or growth inhibition) at 200 ppm [13]: ≥ 80%
percent control (mortality or growth inhibition) at 12.5 ppm [14]: ≥ 80%
mortality at 200 ppm [15]: ≥ 80%

C[C@H](NC(=O)c1cc(C(F)(F)F)cc(C(F)(F)F)c1)c1ncnn1-c1ncccn1 [Compound 17]
percent control (mortality or growth inhibition) at 200 ppm [1]: ≥ 80%
percent control (mortality or growth inhibition) at 200 ppm [2]: ≥ 80%
mortality at 200 ppm [3]: ≥ 80%
mortality at 24 ppm [4]: ≥ 80%
mortality at 12.5 ppm [5]: ≥ 80%
mortality at 500 ppm [6]: ≥ 80%
percent control (mortality or growth inhibition) at 200 ppm [7]: ≥ 80%
percent control (mortality, anti-feedant effect or growth inhibition) at 200 ppm [8]: ≥ 80%
percent control (mortality, anti-feedant effect or growth inhibition) at 12.5 ppm [9]: ≥ 80%
percent control (mortality, anti-feedant effect or growth inhibition) at 200 ppm [10]: ≥ 80%
percent control (mortality or growth inhibition) at 50 ppm [11]: ≥ 80%
percent control (mortality or growth inhibition) at 50 ppm [12]: ≥ 80%
mortality at 200 ppm [15]: ≥ 80%
